Laboratory results from patent US8883228B2, “Composition for heart disease, its active ingredients, method to prepare same and uses thereof” (Tasly Pharmaceutical Group Co. Ltd., priority 2003, dated 2014).

What was measured:
[1] = tested on: angina caused by coronary heart disease; assay: Senior group angina, comparative analysis of DSP and Nifedipine; format: in vivo, human; details: treatment of angina caused by coronary heart disease
Protocol: Both DSP and Nifedipine can treat angina caused by coronary heart disease, but the latter has side effects which are not suitable for long-term use. In order to choose suitable drugs for patients with a need for long-term treatment of coronary heart disease, a comparative analysis of DSP and Nifedipine in the treatment of angina caused by coronary heart disease was carried out. DSP is made for angina. It activates blood circulation and relieves pain efficiently. […] Nifedipine is a short-term-effective calcium antagonist with a short half-life and functional time, so angina may occur during medication. […] Many reports state that long-term treatment with Nifedipine is harmful to coronary arteries. DSP can prevent decreased blood flow to the cardiac muscles and the development of atherosclerosis.

vegetative nerve balance = assay: Adjustment of vegetative nerve, heart rate variation (HRV); format: in vivo, human; details: before and after treatment
From the text: This test uses “Wenger-Chongzhongchongxion” vegetative nerve balance factor analysis to test the heart rate variation (HRV), that is, the fluctuation in the average heartbeat over a certain period of time or over a long time period in the R-R period. Data, including effects on the sympathetic and para-sympathetic nerves can be calculated, to reflect the regulatory function of the vegetative nervous system. […] A decrease in HRV means the sympathetic nerve is excited. It is directly proportional to the symptoms in coronary heart disease and the possibility of sudden death and irregularity of heartbeat. DSP can control over-excitement of the […] nerve and regulate the balance in the vegetative nerve.

[2] = tested on: chronic pulmonary heart disease; assay: Healing effect on chronic pulmonary heart disease; format: in vivo, human; details: treatment group versus control group
From the text: The total efficacy rate of treatment group is 95% and that of the control group 76%, the difference of which is statistically significant (P[…]0.05). […] There was a significant difference in the efficacy of the two groups (X^2=4.46 and 4.95, P[…]0.05). […] There were obvious changes in blood flow in the Treatment group before and after treatment compared with that of the Control group (P[…]0.05). The blood viscosity of the control group decreased after treatment, but there was no statistical deviation.

[3] = tested on: Wistar rat's artificial heart; assay: Cardiac arrhythmia caused by exogenous free radicals, Langendorff perfusion; details: 1 mg/L; ferrous sulfate/citrate free radicals alone up to 100%
From the text: Langendorff perfusion device was used to pour ferrous sulfate (0.25 mmol/L)/citrate (1.0 mmol/L) into the Wistar rat's artificial heart. The model of free radicals causing heart rhythm irregularity was replicated to observe the effects of DSP.

Structure (SMILES): COC(=O)C1=C(C)NC(C)=C(C(=O)OC)C1c1ccccc1[N+](=O)[O-] [Nifedipine]
- side effects [1]: many side effects

Structure (SMILES): O=[N+]([O-])O[C@H]1CO[C@H]2[C@@H]1OC[C@H]2O[N+](=O)[O-] [Isordil]
- SDNN in R-R (vegetative nerve balance): no significant difference
- percentage of y>+0.56 (vegetative nerve balance factor) (vegetative nerve balance): not significant

Structure (SMILES): OCCN(CCO)c1nc(N2CCCCC2)c2nc(N(CCO)CCO)nc(N3CCCCC3)c2n1 [persantin]
- total efficacy rate [2]: 76%

Structure (SMILES): COc1ccc(CCN(C)CCCC(C#N)(c2ccc(OC)c(OC)c2)C(C)C)cc1OC (centres unmarked) [verapamil]
- irregularity percentage (cardiac arrhythmia) [3]: 71.4%
